Data from patent US8372391B2, “Biofungicidal composition for controlling phytopathogenic fungi” (priority 2009, dated 2013).

Test system: Serratia plymuthica CCGG2742
Assay: Susceptibility of Serratia plymuthica CCGG2742 to various antibiotics
Format: cell-based
Set-up: key: sensibility (S); resistance (R)

Molecule: CC1(C)S[C@@H]2[C@H](NC(=O)C(C(=O)O)c3ccccc3)C(=O)N2[C@H]1C(=O)O (some centres unmarked) [Carbenicillin]
- Susceptibility of Serratia plymuthica CCGG2742 to antibiotic (antibiotic 100 μg): S

Molecule: NCC[C@H](O)C(=O)N[C@@H]1C[C@H](N)[C@@H](O[C@H]2O[C@H](CN)[C@@H](O)[C@H](O)[C@H]2O)[C@H](O)[C@H]1O[C@H]1O[C@H](CO)[C@@H](O)[C@H](N)[C@H]1O [Amikacine]
- Susceptibility of Serratia plymuthica CCGG2742 to antibiotic (antibiotic 30 μg): S

Molecule: CO/N=C(\C(=O)N[C@@H]1C(=O)N2C(C(=O)O)=C(COC(N)=O)CS[C@H]12)c1ccco1 [Cefuroxime]
- Susceptibility of Serratia plymuthica CCGG2742 to antibiotic (antibiotic 30 μg): R

Molecule: Penicillin
- Susceptibility of Serratia plymuthica CCGG2742 to antibiotic (antibiotic 10 U): R

Molecule: Cc1onc(-c2ccccc2)c1C(=O)N[C@@H]1C(=O)N2[C@@H]1SC(C)(C)[C@@H]2C(=O)O [Oxacillin]
- Susceptibility of Serratia plymuthica CCGG2742 to antibiotic (antibiotic 1 μg): R

Molecule: CCN1CCN(C(=O)N[C@@H](C(=O)N[C@@H]2C(=O)N3C(C(=O)O)=C(CSc4nnnn4C)CS[C@H]23)c2ccc(O)cc2)C(=O)C1=O [Cefoperazone]
- Susceptibility of Serratia plymuthica CCGG2742 to antibiotic (antibiotic 75 μg): S

Molecule: CC1=C(C(=O)O)N2C(=O)[C@@H](NC(=O)[C@H](N)c3ccc(O)cc3)[C@H]2SC1 [Cefadroxil]
- Susceptibility of Serratia plymuthica CCGG2742 to antibiotic (antibiotic 30 μg): R

Molecule: CN[C@H](CC(C)C)C(=O)N[C@H]1C(=O)N[C@@H](CC(N)=O)C(=O)N[C@H]2C(=O)N[C@H]3C(=O)N[C@H](C(=O)N[C@H](C(=O)O)c4cc(O)cc(O)c4-c4cc3ccc4O)[C@H](O)c3ccc(c(Cl)c3)Oc3cc2cc(c3O[C@@H]2O[C@H](CO)[C@@H](O)[C@H](O)[C@H]2O[C@H]2C[C@](C)(N)[C@H](O)[C@H](C)O2)Oc2ccc(cc2Cl)[C@H]1O [Vancomycin]
- Susceptibility of Serratia plymuthica CCGG2742 to antibiotic (antibiotic 30 μg): R

Molecule: O=C1CN(/N=C/c2ccc([N+](=O)[O-])o2)C(=O)N1 [Nitrofurantoin]
- Susceptibility of Serratia plymuthica CCGG2742 to antibiotic (antibiotic 300 μg): R

Molecule: Cc1nnc(SCC2=C(C(=O)O)N3C(=O)[C@@H](NC(=O)Cn4cnnn4)[C@H]3SC2)s1 [Cefazolin]
- Susceptibility of Serratia plymuthica CCGG2742 to antibiotic (antibiotic 30 μg): R

Molecule: CC(C)(O/N=C(\C(=O)N[C@@H]1C(=O)N2C(C(=O)[O-])=C(C[n+]3ccccc3)CS[C@H]12)c1csc(N)n1)C(=O)O [Ceftazidime]
- Susceptibility of Serratia plymuthica CCGG2742 to antibiotic (antibiotic 30 μg): S

Molecule: Gentamicin
- Susceptibility of Serratia plymuthica CCGG2742 to antibiotic (antibiotic 10 μg): S

Molecule: CO/N=C(\C(=O)N[C@@H]1C(=O)N2C(C(=O)O)=C(COC(C)=O)CS[C@H]12)c1csc(N)n1 [Cefotaxime]
- Susceptibility of Serratia plymuthica CCGG2742 to antibiotic (antibiotic 30 μg): S

Molecule: C[C@H]1[C@H](NC(=O)/C(=N\OC(C)(C)C(=O)O)c2csc(N)n2)C(=O)N1S(=O)(=O)O [Aztreonam]
- Susceptibility of Serratia plymuthica CCGG2742 to antibiotic (antibiotic 30 μg): S

Molecule: CC[C@H]1OC(=O)[C@H](C)[C@@H](O[C@H]2C[C@@](C)(OC)[C@@H](O)[C@H](C)O2)[C@H](C)[C@@H](O[C@@H]2O[C@H](C)C[C@H](N(C)C)[C@H]2O)[C@](C)(O)C[C@@H](C)C(=O)[C@H](C)[C@@H](O)[C@]1(C)O [Erythromycin]
- Susceptibility of Serratia plymuthica CCGG2742 to antibiotic (antibiotic 15 μg): R

Molecule: CCC[C@@H]1C[C@@H](C(=O)N[C@@H]([C@H]2O[C@H](SC)[C@H](O)[C@@H](O)[C@H]2O)[C@H](C)Cl)N(C)C1 [Clindamycin]
- Susceptibility of Serratia plymuthica CCGG2742 to antibiotic (antibiotic 2 μg): R

Molecule: O=C(N[C@H](CO)[C@H](O)c1ccc([N+](=O)[O-])cc1)C(Cl)Cl [Chloramphenicol]
- Susceptibility of Serratia plymuthica CCGG2742 to antibiotic (antibiotic 30 μg): S

Molecule: CO/N=C(\C(=O)N[C@@H]1C(=O)N2C(C(=O)O)=C(CSc3nc(=O)c(=O)[nH]n3C)CS[C@H]12)c1csc(N)n1 [Ceftriaxone]
- Susceptibility of Serratia plymuthica CCGG2742 to antibiotic (antibiotic 30 μg): S

Molecule: CC1(C)S[C@@H]2[C@H](NC(=O)[C@H](N)c3ccc(O)cc3)C(=O)N2[C@H]1C(=O)O [Amoxicillin]
- Susceptibility of Serratia plymuthica CCGG2742 to antibiotic (antibiotic 25 μg): R

Molecule: CN(C)[C@@H]1C(O)=C(C(N)=O)C(=O)[C@@]2(O)C(O)=C3C(=O)c4c(O)cccc4[C@@](C)(O)[C@H]3C[C@@H]12 [Tetracycline]
- Susceptibility of Serratia plymuthica CCGG2742 to antibiotic (antibiotic 30 μg): R

Molecule: CC(=O)OCC1=C(C(=O)O)N2C(=O)[C@@H](NC(=O)Cc3cccs3)[C@H]2SC1 [Cefalotin]
- Susceptibility of Serratia plymuthica CCGG2742 to antibiotic (antibiotic 30 μg): R

Molecule: CO[C@@H]1[C@@H](OC(N)=O)[C@@H](O)[C@H](Oc2ccc3c(O)c(NC(=O)c4ccc(O)c(CC=C(C)C)c4)c(=O)oc3c2C)OC1(C)C [Novobiocin]
- Susceptibility of Serratia plymuthica CCGG2742 to antibiotic (antibiotic 5 μg): R

Molecule: CC1(C)S[C@@H]2[C@H](NC(=O)[C@H](N)c3ccccc3)C(=O)N2[C@H]1C(=O)O [Ampicillin]
- Susceptibility of Serratia plymuthica CCGG2742 to antibiotic (antibiotic 10 μg): R
